Paper PMC7948405, “Small-molecule control of neurotransmitter sulfonation” (The Journal of Biological Chemistry, 2020)

Key:
Test in all cases: Initial-rate inhibition of SULT-catalyzed 1-HP sulfonation
Format in all cases: biochemical
[1] = target: T1, SULT1A3 (Homo sapiens, UniProt P0DMM9); details: parentheses 1 SD; for Ki: in vitro initial rate, 1-HP 5.0 μM, PAPS 0.50 mM, pH 7.5, 25 °C; for % Inhibition at saturation: in vitro, saturating inhibitor
T1 construct: E. coli–optimized SULT coding regions were inserted into a pGEX-6P expression vector; N-His/GST/MBP triple tag (PreScission-cleavable) (N, cleaved yes); made in house; host or cells: E. coli BL21(DE3)
T1 sequence (P0DMM9 whole entry): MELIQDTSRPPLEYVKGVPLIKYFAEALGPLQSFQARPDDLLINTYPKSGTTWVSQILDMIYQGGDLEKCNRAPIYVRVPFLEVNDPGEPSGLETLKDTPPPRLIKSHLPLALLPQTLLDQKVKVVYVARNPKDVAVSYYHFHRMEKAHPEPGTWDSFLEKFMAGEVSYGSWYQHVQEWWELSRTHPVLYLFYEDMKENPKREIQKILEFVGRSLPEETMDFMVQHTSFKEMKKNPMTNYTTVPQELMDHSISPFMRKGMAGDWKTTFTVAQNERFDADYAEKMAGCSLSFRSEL
Protocol: (§1) Figure 3 Affinity, specificity, and binding sites of CMP12 and CMP13. A and B, inhibition studies. Initial rates of SULT-catalyzed 1-HP sulfonation are plotted as a function of inhibitor concentration. Rates are normalized to the rate observed in the absence of the inhibitor. Inhibition of the major SULT isoforms found in the brain and liver were tested. SULT activity was monitored via the sulfonation-dependent change in 1-HP fluorescence (λex = 325 nm, λem = 375 nm ([15], [28])). Reaction conditions were as follows: SULT (20 nM, active sites), PAPS (0.50 mM, 17 × Km), 1-HP (5.0 μM, 61 × Km), KPO4 (50 mM), pH 7.5, 25(±2) °C. Less than 5% of the concentration-limiting substrate was converted to the product at reaction endpoints. Each data point is the average of three independent determinations. The lines passing through the data are least-squares fits to a noncompetitive partial-inhibition model (see Experiment and Initial rate). C, CMP8 competes with CMP12 and CMP13. Initial rates at saturating CMP12 or CMP13 are plotted as a function of CMP8 concentration. Rates are normalized to the rate observed in the absence of the inhibitor. […] Lines passing through the data are the predictions of a noncompetitive partial-inhibition model in which inhibitors compete for the same site (see Experiment and Binding competition). SULT, sulfotransferase; PAP, 3′-phosphoadenosine-5′-phosphate; SULT1A3, sulfotransferase 1A3; PAPS, 3’-phosphoadenosine 5’-phosphosulfate; 1-HP, 1-hydroxypyrene.
(§2) Initial-rate inhibition parameters were obtained from classical initial-rate studies ([16], [28], [43]). Reactions were initiated by addition of PAPS (0.50 mM, 17 × Km) to a solution containing SULT1A3 (20 nM, active sites), inhibitor (0.2–20 × Ki), 1-HP (5.0 μM, 60 × Km), and KPO4 (50 mM), pH 7.5, 25(±2) °C. Reaction progress was monitored via the fluorescence change associated with 1-HP sulfonation (λex = 325 nm, λem = […] ([15], [28])). Less than 5% of the 1-HP was converted to the product at reaction endpoints. Ki and kcat inh (i.e., turnover at saturating inhibitor and substrate) were obtained by fitting to the following quadratic equation for noncompetitive, partial inhibition at [S] >> Km ([44]):(7) v/Vmax=([Etot]+[ESI](α-1))/[Etot] where(8) α=kcat inh/kcat and(9) [ESI]=[([E]tot+[I]tot+Ki)−[([E]tot+[I]tot+Ki)^2−4·[I]tot·[E]tot]^1/2]/2

[2] = target: T2, SULT1A1 (Homo sapiens, UniProt P50225)
T2 construct: E. coli–optimized SULT coding regions were inserted into a pGEX-6P expression vector; N-His/GST/MBP triple tag (PreScission-cleavable) (N, cleaved yes); made in house; host or cells: E. coli BL21(DE3)
T2 sequence (P50225 whole entry): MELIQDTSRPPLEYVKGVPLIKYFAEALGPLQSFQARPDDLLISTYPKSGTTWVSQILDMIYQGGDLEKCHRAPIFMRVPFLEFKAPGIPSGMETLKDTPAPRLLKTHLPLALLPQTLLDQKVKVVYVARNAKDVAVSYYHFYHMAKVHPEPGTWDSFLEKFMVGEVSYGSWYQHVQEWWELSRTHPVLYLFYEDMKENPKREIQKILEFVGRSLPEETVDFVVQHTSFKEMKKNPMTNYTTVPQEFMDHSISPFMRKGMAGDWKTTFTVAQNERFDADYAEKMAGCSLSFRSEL
Protocol: (§3) The affinity and specificity of CMP12 and CMP13 were evaluated in initial-rate studies using the four major SULT isoforms expressed in the brain and liver ([27])—SULT1A1, SULT1E1, SULT1A3, and SULT2A1. Initial-rate vs [inhibitor] plots are presented in Fig. 3, A–B. The data are normalized to the rates in the absence of inhibitor. Solid lines passing through the data are the predictions of least-squares fitting to a single-binding-site, partial-inhibition model. The best-fit parameters are found in Table 1. […] Both compounds are partial inhibitors, and their percent inhibition values at saturation (83 and 98%, respectively) agree well with the predicted values.
as §1, §2

[3] = target: T3, SULT1E1 (Homo sapiens, UniProt P49888); details: concentrations as high as 10 μM
T3 construct: E. coli–optimized SULT coding regions were inserted into a pGEX-6P expression vector; N-His/GST/MBP triple tag (PreScission-cleavable) (N, cleaved yes); made in house; host or cells: E. coli BL21(DE3)
T3 sequence (P49888 1-294): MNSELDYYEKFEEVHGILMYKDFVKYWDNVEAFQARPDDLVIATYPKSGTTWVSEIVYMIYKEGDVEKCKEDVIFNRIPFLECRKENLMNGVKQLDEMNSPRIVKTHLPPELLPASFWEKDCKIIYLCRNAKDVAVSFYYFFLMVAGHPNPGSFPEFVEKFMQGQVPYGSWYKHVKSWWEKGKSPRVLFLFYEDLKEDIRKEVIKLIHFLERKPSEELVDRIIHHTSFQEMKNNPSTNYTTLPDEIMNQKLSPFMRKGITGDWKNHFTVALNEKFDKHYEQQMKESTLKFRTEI
Protocol: as §3, §1, §2

[4] = target: T4, SULT2A1 (Homo sapiens, UniProt Q06520); details: concentrations as high as 10 μM
T4 construct: E. coli–optimized SULT coding regions were inserted into a pGEX-6P expression vector; N-His/GST/MBP triple tag (PreScission-cleavable) (N, cleaved yes); made in house; host or cells: E. coli BL21(DE3)
T4 sequence (Q06520 1-285): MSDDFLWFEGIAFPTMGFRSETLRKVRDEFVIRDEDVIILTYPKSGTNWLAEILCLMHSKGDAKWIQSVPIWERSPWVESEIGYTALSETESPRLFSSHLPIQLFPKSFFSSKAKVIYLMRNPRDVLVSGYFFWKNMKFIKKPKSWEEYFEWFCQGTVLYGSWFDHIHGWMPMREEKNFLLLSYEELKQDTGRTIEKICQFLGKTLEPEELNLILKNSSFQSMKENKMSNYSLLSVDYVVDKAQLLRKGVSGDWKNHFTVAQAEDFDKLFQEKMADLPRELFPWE
Protocol: as §3, §1, §2

Ki [1] [nM] | % Inhibition at saturation [1] | inhibition of SULT1A1 ([2]; concentrations as high as 10 μM) | inhibition of SULT1E1 [3] | inhibition of SULT2A1 [4] | Ki ([2]; SULT1A1, initial rate) [nM] | Compound
70 | 83 (4) % | no detectable inhibition | no detectable inhibition | no detectable inhibition | – | CC(C)Cc1ccc2cc(CCC(N)=O)ccc2n1 [CMP12]
11 | 98 (2) % | – | behaved similarly | behaved similarly | 3100 ± 200 | CC(C)Cc1ccc2cc(/C=C/C(N)=O)cnc2n1 [CMP13]
